# Where a SMILES comes first, the peptide text is derived from it. The star is where a group is joined. Cbz = O=C(OCc1ccccc1)*
# Columns and labels:
# [1] = test system: c-MPL; test: Cell surface c-MPL levels in MkPs by flow cytometry; assay type: cell-based, mouse; conditions: TPO 30 ng/ml
# Description: Detection of c-MPL from in vivo and in vitro experiments was performed as follows. After harvesting BM progenitor cells, RBCs were lysed and the cells were then resuspended in FACS buffer. Cells were then stained with a cocktail of lineage markers to allow negative selection of BM progenitor cells (Sca1, CD127, CD45R, CD19, CD11b, CD3e, TER-119, CD2, CD8, CD4, and Ly-6C/G; all FITC; eBioscience) and progenitor cell markers, ckit, CD16/CD32 (FcγRII/III), CD34, CD41 and c-MPL or isotype control and allowed to stain on ice for 30 mins. Cells were then washed and stained with a fluorescently conjugated secondary anti-rabbit antibody to detect the anti-c-MPL for a further 30 mins on ice. After this the cells were washed, resuspended in FACS buffer and run on the LSRII. MEPs were identified as lin^− ckit^+CD16/CD32^loCD34^loCD41^−, while MkPs were identified as lin^−ckit^+CD16/CD32^loCD34^loCD41^+.
# [2] = test system: c-CBL; test: c-Cbl tyrosine phosphorylation in MkPs in response to TPO, flow cytometry; assay type: cell-based, mouse
# Description: BM progenitor cells were stimulated with TPO at the indicated concentration for the specified period of time at 37° C. and then immediately diluted with ice-cold buffer and placed on ice to prevent further changes in phosphorylation. Cells were then centrifuged and the pellet resuspended in BD fix buffer (BD Biosciences) for 10 mins on ice. The cells were washed with BD flow cytometry staining buffer, centrifuged and then resuspended in BD cytofix/perm buffer III for 20 mins. After this the cells were washed and resuspended in BD staining buffer and incubated with lineage (Sca1, CD127, CD45R, CD19, CD11b, CD3e, TER-119, CD2, CD8, CD4, and Ly-6G; all FITC; eBioscience) and progenitor cell markers, ckit, CD16/CD32 (FcγRII/III), CD34, CD41 and anti-phospho-c-Cbl ([…]/[…]; BD biosciences) or an isotype control for 30 mins on ice. The cells were then washed, resuspended in FACS buffer and run on an LSRII. Phosphorylated c-Cbl was normalized against isotype control staining.
# [3] = test system: LacZ-positive splenic cells; test: LacZ-positive splenic cells after phenylhydrazine injection; assay type: in vivo, mouse; conditions: Abcg4−/− mice on chow diet, 3 days after injections
# Source text: FIG. 6. (A) Representative of LacZ staining of BM sections of WT or Abcg4^−/− mice fed chow diet. Megakaryocytes are indicated by black arrows while LacZ-positive cells are indicated by white arrows Original magnification 20×. (B) Lac-Z staining of spleen of WT and Abcg4^−/− mice fed the chow diet and (C) from Abcg4^−/− BM Ldlr^−/− recipient mice fed WTD for 12 weeks. (D) Representative LacZ staining of spleen sections and quantification of LacZ-positive splenic cells of Abcg4^−/− mice fed the chow diet 3 days after either vehicle or phenylhydrazine injections. Error bars are S.D (n=5). * P<0.05.
# Tissues and proximal aortas were serially paraffin sectioned and stained with H&E for morphological analysis as described^2. Aortic lesion size of each animal was calculated as the mean of lesion areas in 5 sections from the same mouse. Bone samples were decalcified with EDTA solution prior to cryosectioning. Von Willibrand Factor antibody (Dako, Catalog #A0082) was used to stain MKs. Lac-Z staining of frozen sections of mouse bone, spleen or proximal aorta was carried out using β-Galactosidase Staining Kit (Cell Signaling Technology, Danvers, Mass.).
# [4] = target: T1, c-MPL (Mus musculus, UniProt Q08351); conditions: mice and other species; Broudy & Lin 2004; cited from earlier work
# T1 construct: increasing platelet counts in mice and other species; host or cells: mice (in vivo)
# T1 sequence (Q08351 26-625): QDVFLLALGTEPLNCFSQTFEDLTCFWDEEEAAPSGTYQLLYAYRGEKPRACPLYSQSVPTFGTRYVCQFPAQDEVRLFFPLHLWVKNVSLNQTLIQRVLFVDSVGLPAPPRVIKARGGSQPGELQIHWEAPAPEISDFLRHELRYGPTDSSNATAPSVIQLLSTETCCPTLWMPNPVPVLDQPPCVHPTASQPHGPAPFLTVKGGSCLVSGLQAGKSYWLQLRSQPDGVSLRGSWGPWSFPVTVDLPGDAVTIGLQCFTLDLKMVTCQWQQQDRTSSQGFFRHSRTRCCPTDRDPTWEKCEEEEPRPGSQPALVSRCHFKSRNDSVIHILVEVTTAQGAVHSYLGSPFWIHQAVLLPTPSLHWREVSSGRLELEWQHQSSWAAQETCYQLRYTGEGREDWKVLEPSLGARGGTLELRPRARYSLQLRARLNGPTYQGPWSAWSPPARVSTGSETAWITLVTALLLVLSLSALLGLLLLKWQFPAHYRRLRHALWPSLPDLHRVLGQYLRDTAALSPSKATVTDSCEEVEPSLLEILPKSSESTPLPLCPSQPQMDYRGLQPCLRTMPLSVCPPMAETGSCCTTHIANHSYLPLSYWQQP
# [5] = test system: platelets; test: Platelet count after a single dose of recombinant TPO in chow-fed mice; assay type: in vivo, mouse; conditions: single dose TPO 50 μg/kg BW
# Description: FIG. 2. (A) Abcg4 mRNA expression in various types of BM and peripheral white blood cells in WT mice determined by q-PCR. (n=5). (B) Quantification of BM cell populations and (C) cell surface c-MPL levels of Ldlr^−/− recipient mice fed WTD for 12 weeks (n=5). (D) MK-CFU assay using HPCs harvested by FACS from WT or Abcg4^−/− mice. (E) Platelet count in the WT and Abcg4^−/− mice (n=5) receiving a single dose of TPO (50 μg/kg BW) or the vehicle control. The representative of two studies with similar results is shown. (F) Bodipy-cholesterol efflux from WT or Abcg4^−/− MkPs to CD (2 mM) or rHDL (20 μg/ml) for 2 hours (n=4). (G) Bodipy-cholesterol levels in WT or Abcg4^−/− MkPs following CD/Bodipy-cholesterol loading (n=4). (H) EdU incorporation into and (I) cell surface c-MPL of WT or Abcg4^−/− MkPs were determined by flow cytometry (n=4). Error bars are S.E.M. *P<0.05 WT versus Abcg4^−/− groups and ^P<0.05 for treatment effect.
# Mice and Treatments Abcg4^−/−, Abcg1 Abca1^−/−, and Abcg1^−/− mice were created as described (Wang, N. et al. 2006; Yvan-Charvet, L. et al. 2010) and used in this study. Abcg4^−/− mice have been backcrossed onto C57BL6/J mice for more than 10 generations. WT (C57BL/6J) and Ldlr^−/− (B6.12957-Ldlrtm1Her) were obtained from The Jackson Laboratory (Bar Harbor, Me.). […]
# CBCs were quantified using whole blood collected from the tail bleeding. […]
# [6] = test system: p-STAT-5 and p-ERK1/2; test: p-STAT5 and p-ERK1/2 levels in MkPs with or without TPO; assay type: cell-based, mouse; conditions: WT and Abcg4−/− MkPs; TPO 30 ng/ml for 10 minutes
# Description: FIG. 3. Shown are results all from WT, Abcg4^−/− or Lyn^−/− MkPs (n=4). (A) Quantification of tyrosine-phosphorylated c-CBL in response to TPO. (B) Tyrosine-phosphorylated c-CBL levels 5 min after TPO treatment and with or without pretreatment with CD (3 mM), CD-chol (3 mM CD) for 30 min or rHDL (20 μg apoA-I/ml) for 2 hours. (C) Tyrosine-phosphorylated c-CBL with or without 5 min TPO treatment or SU6656 pretreatment (10 μg/ml for 2 h). (D) Cell surface c-MPL with or without TPO or SU6656 treatment for 2 h. (E) Tyrosine-phosphorylated c-CBL (5 min in response to TPO). (F) cell surface c-MPL (2 h TPO treatment) with or without pretreatment with CD-chol (3 mM CD) for 30 min. (G) 16 h EdU incorporation in the presence of TPO and with or without CD (3 mM), CD-Chol (3 mM CD) pretreatment for 30 min or rHDL (20 μg/ml) for 16 h. (H) p-STAT-5 and p-ERK1/2 levels with or without TPO for 10 minutes. TPO was 30 ng/ml for all the assays shown. Error bars are S.E.M. *P<0.05 WT vs Abcg4^−/− TPO and ^P<0.05 for treatment effect.
# [7] = test system: MkPs; test: MkP proliferation by EdU incorporation; assay type: cell-based, mouse; conditions: in the presence of TPO
# Description: FIG. 3. Shown are results all from WT, Abcg4^-/- or Lyn^-/- MkPs (n=4). (A) Quantification of tyrosine-phosphorylated c-CBL in response to TPO. (B) Tyrosine-phosphorylated c-CBL levels 5 min after TPO treatment and with or without pretreatment with CD (3 mM), CD-chol (3 mM CD) for 30 min or rHDL (20 μg apoA-I/ml) for 2 hours. (C) Tyrosine-phosphorylated c-CBL with or without 5 min TPO treatment or SU6656 pretreatment (10 μg/ml for 2 h). (D) Cell surface c-MPL with or without TPO or SU6656 treatment for 2 h. (E) Tyrosine-phosphorylated c-CBL (5 min in response to TPO). (F) cell surface c-MPL (2 h TPO treatment) with or without pretreatment with CD-chol (3 mM CD) for 30 min. (G) 16 h EdU incorporation in the presence of TPO and with or without CD (3 mM), CD-Chol (3 mM CD) pretreatment for 30 min or rHDL (20 μg/ml) for 16 […]-5 and p-ERK1/2 levels with or without TPO for 10 minutes. TPO was 30 ng/ml for all the assays shown. Error bars are S.E.M. *P<0.05 WT vs Abcg4^-/- TPO and ^P<0.05 for treatment effect. Blood leukocytes and BM HSPCs were stained and analyzed or sorted as described (Murphy, A. J. et al. 2011). Briefly, BM cells from the mouse femurs and tibias were stained with a cocktail of antibodies to lineage committed cells (CD45R, CD19, CD11b, CD3e, TER-119, CD2, CD8, CD4, Ly-6C/G: All FITC, eBioscience), antibodies to Sca1 (Pacific Blue) and ckit (APC Cy7) to identify HSPC populations and LSK (lin-, Sac1+ and ckit+) cells, and antibodies to CD16/CD32 (FcγRII/III), CD34 to separate CMP (lin-, Sca1-, ckit+, CD34int, […] (lin-, Sca1-, ckit+, CD34int, […] (lin-, Sca1-, ckit+, CD34lo, FcγRII/IIIlo). For DNA content analysis (G2M phase), BM cells were fixed, and stained with DAPI (Invitrogen) prior to flow cytometry analysis. To determine in vivo cell proliferation, EdU (Invitrogen) was injected into mice via the tail vein 24 hours prior to being sacrificed. Cells were immunostained as described above in preparation for flow cytometry. Cells were then fixed and permeabilized using 0.01% saponin (w/v; Fluka) and 1% FCS (v/v) in IC fixation buffer (eBiosciences) for 30 minutes. Cells were then washed and stained with Alexa Fluor-conjugated azides using the Click-iT system (Invitrogen). Proliferation was quantified as percentage of EdU^+ cells by flow cytometry.
# [8] = test system: total BM cells from WT or Abcg4−/− mice; test: MK-CFU assay with total BM cells, with or without CD pretreatment; assay type: cell-based, mouse; conditions: CD 3 mM pretreatment for 30 minutes
# Description: FIG. 13. (A) Fluorescence confocal microscopy of WT or Abcg4^−/− MkPs treated with CD/Bodipy-cholesterol (0.03 mM CD) for 30 min and (B) confocal microscopy and quantification of fillipin stained WT or Abcg4^−/− MkPs. Gene expression was determined by q-PCR in (C) MEPs or (D) GMPs from the WT or Abcg4^−/− BM Ldlr^−/− recipient mice (n=5) fed WTD for 12 weeks. Error bars are S.D (n=10). *P<0.05. (E) MK-CFU assays using total BM cells from WT or Abcg4^−/− mice with or without pretreatment with CD (3 mM) for 30 minutes. Error bars are S.E.M. *P<0.05.
# Primary BM HSPC cells obtained by FACS were plated in methylcellulose-based media (5000 cells/assay) containing TPO (50 ng/mL), IL-6 (20 ng/mL), and IL-3 (10 ng/mL) and incubated for 8 days according to manufacturer's protocol (Megacult-C, Stemcell Technologies). Cultures were fixed and the MK colonies visualized by staining for acethylcholinesterase activity. Nuclei were counterstained with Harris' hematoxylin. Colonies containing more than 3 megakaryocytes were scored as CFU-Mk.
molecule,measurement,setting,value
CC(C)C[C@@H](C=O)NC(=O)[C@H](CC(C)C)NC(=O)[C@H](CC(C)C)NC(=O)OCc1ccccc1 [MG132] (Cbz-Leu-Leu-Leu-aldehyde),cell surface c-MPL levels,[1]; WT MkPs,increased
CN(C)S(=O)(=O)c1ccc2c(c1)/C(=C/c1cc3c([nH]1)CCCC3)C(=O)N2 [SU6656],cell surface c-MPL levels,[1]; WT and Abcg4−/− MkPs,increased
same,c-CBL tyrosine phosphorylation,[2]; WT and Abcg4−/− MkPs,markedly decreased
CCN(CC)CCO[C@H]1CC[C@@]2(C)C(=CC[C@@H]3[C@@H]2CC[C@]2(C)C(=O)CC[C@@H]32)C1 [U18666A],cell surface c-MPL levels,[1]; Abcg4−/− MkPs,reversed
same,c-CBL tyrosine phosphorylation,[2]; Abcg4−/− MkPs,reversed
NNc1ccccc1 [phenylhydrazine],LacZ positive cells in the spleen,[3],marked expansion
Romiplostim,platelet counts,[4],increasing
"TPO: Thrombopoietin, growth factor regulating megakaryocyte/platelet lineage development (R&D Systems)",increase in platelets,[5]; chow-fed Abcg4−/− mice,2.1 fold
same,increase in platelets,[5]; chow-fed WT mice,1.4 fold
same,p-ERK1/2 levels,[6],increased
same,p-STAT5 levels,[6],increased
cyclodextrin [CD],cell surface c-MPL levels,[1]; WT and Abcg4−/− MkPs,significantly reduced
same,c-CBL tyrosine phosphorylation,[2]; WT and Abcg4−/− MkPs,increased
same,MkP proliferation,[7]; Lyn−/− MkPs,completely unresponsive
same,MkP proliferation,[7]; WT MkPs,decreased
same,MkP proliferation,[7]; WT and Abcg4−/− MkPs,significantly reduced
same,increase in megakaryocyte colonies associated with ABCG4 deficiency,[8],reversed
